Data taken from patent US11235033B1, “Materials and methods for the treatment of vascular calcification” (THE FLORIDA INTERNATIONAL UNIVERSITY BOARD OF TRUSTEES, priority 2020, dated 2022).
Entries after “also recorded” stand apart in the source; their conditions may differ. Like-named read-outs stand apart in the source and are kept apart here.

Key:
caveolin-1 [1] = test: Immunofluorescence of caveolin-1 localization in SMCs in pro-calcific media; assay type: cell-based, human; details: 1 μM AG1478, SMCs in pro-calcific media; FIG. 13
Excerpt: (§1) The vasodilatory effects of RXFP1 agonism occurs through interactions within caveolae on endothelial cells. G-protein-coupled receptors (GPCRs), such as RXFP1, use caveolae scaffolding domains to regulate interactions with other proteins and activate downstream signaling. […] RXFP1 agonism may stabilize existing caveolae, leading to the observed decreased caveolin-1 turnover. RXFP1 agonist-induced stabilization of caveolae may prevent the formation of calcifying EVs.
(§2) To determine changes in caveolin-1 associated with the culture conditions and treatments, western blotting and immunofluorescence are used to assay caveolin-1 phosphorylation on tyrosine 14. This site is associated with changes in EGFR activity and caveolae internalization. Immunofluorescence is then used to assess the localization of caveolin-1 within the SMCs for the different culture conditions at these time points. Western blotting is used to quantify caveolin-1 in EVs relative to SMC lysates.

CKD mice = test: Aortic calcification in CKD mice fed a high phosphate diet; assay type: in vivo, mouse; details: for calcification in treated CKD mice: CKD diet regimen, AG1478 20 mg/kg or ML290 30 mg/kg oral gavage every 2 days
Procedure: Eight-week old SMMHC-CreER^T2+/Cav1^fl/fl mice receive daily intraperitoneal injections of either peanut oil (vehicle control) or tamoxifen (1 mg/kg) for two weeks. Following the final injection, mice receive an adenine-enriched (0.2%) diet for 6 weeks to induce kidney dysfunction. Elevated phosphate (1.8%) is then added to the diet to induce medial calcification. Using a sensitive near-infrared calcium mineral tracer (OsteoSense 680), significant aortic calcification in mice was observed after 2 weeks of the high phosphate diet (FIG. 1). Vascular calcification continues to increase for up to 6 weeks of the high phosphate diet.
To test the therapeutic efficacy of these small molecules, e.g., ML290 or AG1478, the same CKD diet regimen is used as discussed above. A mouse model designed to test agonists for human RXFP1 is utilized.
Beginning at prescribed time points (FIG. 11), mice are treated with the EGFR inhibitor, AG1478 (20 mg/kg), or ML290 (30 mg/kg) via oral gavage every 2 days. Control mice receive vehicle gavage. The treatments begin either at the initiation of the high phosphate diet (to determine if the treatments prevent mineral formation) or after two weeks of the high phosphate diet (to determine if the treatments can reverse medial calcification).

[2] = tested on: primary human coronary artery smooth muscle cells; test: Calcific mineral formation by SMCs cultured in pro-calcific (osteogenic) media in vitro; assay type: cell-based; details: for SMC mineralization in vitro: AG 1478 2.5 μM, FIG. 8A
Procedure: Pro-calcific media, optimized to induce calcification, consists of growth media supplemented with 10 nM dexamethasone, 100 μM L-ascorbic acid, and 10 mM β-glycerolphosphate. All in vitro experiments proceed for 14 days, when release of calcifying EVs from human coronary artery SMCs in pro-calcific media peaks.
[…] Changes in SMC phenotype are assayed in the culture conditions and in response to the small molecule treatments by measuring expression of osteogenic and SMC relevant genes at the time points considered. In vitro mineralization is assessed using alizarin red S staining, extraction, and colorimetric analyses after 21 days in culture.

caveolin-1 [3] = test: Western blotting of caveolin-1 in SMCs and in EVs under pro-calcific conditions; assay type: cell-based, human; details: AG 1478 2.5 μM; for EV caveolin-1: EVs under pro-calcific conditions, FIG. 8D; for intracellular caveolin-1: SMCs, FIG. 8C
Excerpt: (§3) EVs from the in vitro samples are isolated using previously established procedures, which includes 1,000×g and 10,000×g centrifugations to remove cells and large contaminants and a 100,000×g ultracentrifugation to obtain EVs suspended in conditioned media.
as §2

dynamin = details: cited from earlier work
[4] = tested on: tissue non-specific alkaline phosphatase (TNAP); test: TNAP activity in EVs released by SMCs; assay type: cell-based, human; details: AG 1478 2.5 μM, FIG. 8B
Excerpt: To obtain EVs from the mouse aortae, following collagenase digestion and tissue homogenization using a Dounce homogenizer, cells and large extracellular aggregates are removed by centrifugation steps of 1,000×g and 10,000×g, respectively. EVs are isolated from the remaining supernatant by ultracentrifugation at 100,000×g. Western blotting analyses of commonly enriched EV markers determine the efficacy of the isolation procedures. The presence of caveolin-1 and activity of the pro-calcific enzyme TNAP are also assessed in the extracted EVs.
as §3

THP1 cells = details: cited from earlier work
RXFP1 [5] = molecular target: T1, RXFP1 (Homo sapiens, UniProt Q9HBX9); details: cited from earlier work
T1 sequence (Q9HBX9 1-757): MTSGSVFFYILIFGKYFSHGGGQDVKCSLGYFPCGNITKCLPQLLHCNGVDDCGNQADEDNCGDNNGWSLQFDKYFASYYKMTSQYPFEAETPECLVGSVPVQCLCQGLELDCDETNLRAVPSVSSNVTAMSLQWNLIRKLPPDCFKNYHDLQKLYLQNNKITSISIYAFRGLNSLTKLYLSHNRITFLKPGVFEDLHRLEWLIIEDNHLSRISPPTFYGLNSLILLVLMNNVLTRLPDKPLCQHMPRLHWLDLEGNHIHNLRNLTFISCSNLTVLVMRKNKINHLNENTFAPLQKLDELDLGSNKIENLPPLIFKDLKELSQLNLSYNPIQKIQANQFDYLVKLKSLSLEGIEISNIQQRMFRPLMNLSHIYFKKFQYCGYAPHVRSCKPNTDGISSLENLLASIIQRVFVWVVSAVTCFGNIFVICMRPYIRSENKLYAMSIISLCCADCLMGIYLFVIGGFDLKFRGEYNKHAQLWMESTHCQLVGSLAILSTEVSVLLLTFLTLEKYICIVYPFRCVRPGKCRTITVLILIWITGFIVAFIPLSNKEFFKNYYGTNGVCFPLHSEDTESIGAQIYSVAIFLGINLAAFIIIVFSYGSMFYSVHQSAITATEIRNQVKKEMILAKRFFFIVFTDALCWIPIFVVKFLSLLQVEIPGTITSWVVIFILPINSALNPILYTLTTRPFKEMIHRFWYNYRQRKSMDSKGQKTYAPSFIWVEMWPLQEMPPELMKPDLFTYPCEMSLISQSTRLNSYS

PPARGC1A = PPARGC1A gene expression in SMCs cultured in pro-calcific media; assay type: cell-based, human; details: FIG. 15
Excerpt: The modulation of a different GPCR, the serotonin 2B receptor, alters intracellular trafficking to prevent calcification by aortic valve cells. Both 5-HT2B and RXFP1 can modulate vascular tone through interactions with nitric oxide synthase—a known caveolin-1 interactor. RXFP1 may, however, affect caveolin-1 protein stability directly. Peroxisome Proliferator-Activated Receptor γ (PPARγ) activation promotes lysosomal degradation of caveolin-1 in pulmonary artery SMCs. […] Therefore, thus result indicates the potential mechanism for the observed anti-calcific effects of ML290.

[6] = Adverse events in 25-week atherosclerotic mouse study; assay type: in vivo; details: mice, oral gavage, preliminary 25-week atherosclerotic study
RXFP1 [7] = molecular target: T1, RXFP1; details: cited from earlier work; remark: listed apart in the source
atherogenic Apoe−/− mice = test: Calcification (OsteoSense fluorescence) in atherogenic Apoe-/- mice; assay type: in vivo, mouse; details: oral gavage 30 mg/kg; for OsteoSense fluorescence (mineral) vs vehicle treated controls: after 25 weeks of atherogenic diet
Excerpt: A chow control is shown for comparison (first aorta). C) Quantification of mice treated with ML290 at the initiation of the atherogenic diet. […] D) Quantification of OsteoSense signal in mice treated at 15 weeks of atherogenic diet, indicating potential of treatment to reverse existing remodeling. #p<0.0001.
Relaxin Family Peptide Receptor 1 (RXFP1) agonism induces vasodilation through a mechanism that may involve interactions with endothelial nitric oxide synthase within caveolae. The relaxin peptide, activating RXFP1, has therapeutic potential in treating fibrosis and vasculopathies.

rodent receptor = molecular target: T2, rodent receptor (Mus musculus, UniProt Q6R6I7); details: cited from earlier work
T2 sequence (Q6R6I7 1-758): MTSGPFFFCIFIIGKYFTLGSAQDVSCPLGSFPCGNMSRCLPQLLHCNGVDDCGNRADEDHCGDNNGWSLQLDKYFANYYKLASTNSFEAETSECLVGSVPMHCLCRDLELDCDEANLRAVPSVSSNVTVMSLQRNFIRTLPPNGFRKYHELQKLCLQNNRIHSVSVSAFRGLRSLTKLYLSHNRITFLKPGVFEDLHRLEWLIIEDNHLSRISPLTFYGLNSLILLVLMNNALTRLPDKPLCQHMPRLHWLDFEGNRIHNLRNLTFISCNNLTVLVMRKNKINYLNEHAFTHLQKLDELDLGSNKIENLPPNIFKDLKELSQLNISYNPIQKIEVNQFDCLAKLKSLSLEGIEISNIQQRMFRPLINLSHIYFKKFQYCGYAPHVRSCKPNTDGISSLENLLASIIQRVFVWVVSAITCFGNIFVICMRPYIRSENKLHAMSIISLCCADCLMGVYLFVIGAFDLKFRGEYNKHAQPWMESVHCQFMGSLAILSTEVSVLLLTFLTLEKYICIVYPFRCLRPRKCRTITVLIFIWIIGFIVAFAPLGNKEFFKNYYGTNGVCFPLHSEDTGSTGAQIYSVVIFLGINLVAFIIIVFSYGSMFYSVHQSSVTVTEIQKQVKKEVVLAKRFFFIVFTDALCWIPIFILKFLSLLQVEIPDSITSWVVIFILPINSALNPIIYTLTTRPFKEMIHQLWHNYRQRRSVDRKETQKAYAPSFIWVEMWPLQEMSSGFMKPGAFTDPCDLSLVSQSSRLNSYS

[8] = Pharmacokinetics study of ML290 via oral administration in hRXFP1/hRXFP1 mice; assay type: in vivo; details: mouse, 30 mg/kg oral
caveolin-1 [9] = test: Caveolin-1 gene expression in pro-calcific SMC culture; assay type: cell-based, human; details: SMCs, pro-calcific conditions, 24 h; FIG. 14
Excerpt: as §1

[10] = in vivo; cited from earlier work
hypertensive rats = details: chronic treatment; cited from earlier work

COc1cc2ncnc(Nc3cccc(Cl)c3)c2cc1OC [AG1478]
caveolin-1 plasma membrane (peripheral) localization (caveolin-1 [1]): maintained the peripheral localization of caveolin-1; also recorded: preserves caveolin-1 (red) plasma membrane localization | calcification in treated CKD mice (CKD mice): Diminished calcification | SMC mineralization in vitro [2]: prevents calcific mineral formation | SMC mineralization in vitro ([2]; listed as AG 1478): prevents SMC mineralization | EV caveolin-1 (caveolin-1 [3]): reduces caveolin-1 released in EVs; also recorded: decreases EV caveolin-1 | EV caveolin-1 (caveolin-1 [3]; listed as AG 1478): reduces EV caveolin-1 | intracellular caveolin-1 (caveolin-1 [3]): does not change intracellular caveolin-1; also recorded: without affecting intracellular caveolin-1 levels | intracellular caveolin-1 (caveolin-1 [3]; listed as AG 1478): does not affect intracellular caveolin-1 | dynamin activity (dynamin): reduces dynamin activity | EV TNAP activity [4]: reduces activity | EV TNAP activity ([4]; listed as AG 1478): reduces EV TNAP activity

CC(C)Oc1ccccc1C(=O)Nc1ccccc1C(=O)Nc1cccc(S(=O)(=O)C(F)(F)F)c1 [ML290]
VEGF gene expression (THP1 cells): increase | cAMP levels (THP1 cells): increase | calcification in treated CKD mice (CKD mice): Diminished calcification | aortic calcification (CKD mice; CKD mice, 30 mg/kg oral gavage from initiation of high phosphate diet, 2 weeks, FIG. 12, 30 mg/kg): significant prevented aortic calcification; also recorded: significantly prevents aortic calcification | agonism of human RXFP1 (RXFP1 [5]): potent and efficacious non-peptide agonist; also recorded: specific agonist for human RXFP1 | PPARGC1A gene expression (PPARGC1A): increases PPARGC1A; also recorded: increased expression of PPARGC1A | mineral formation by vascular smooth muscle cells in vitro ([2]; ML290 5 μM, FIG. 9A): significantly reduces mineral formation | anti-calcification effect on human SMCs in vitro ([2]; primary human coronary artery smooth muscle cells cultured in osteogenic stimuli): mitigates calcification; also recorded: profound anti-calcification effects | adverse events [6]: No adverse events | selectivity towards RXFP1 over RXFP2 receptors (RXFP1 [7]): > 100 fold | calcification in vivo (atherogenic Apoe−/− mice; Apoe−/− mice, FIG. 9B, 30 mg/kg): mitigates calcification; also recorded: reduces calcification in vivo | OsteoSense fluorescence (mineral) vs vehicle treated controls (atherogenic Apoe−/− mice; treated after 15 weeks of atherogenic diet): Lower OsteoSense fluorescence | OsteoSense fluorescence (mineral) vs vehicle treated controls (atherogenic Apoe−/− mice; treated at the beginning of the atherogenic diet): Lower OsteoSense fluorescence | activation of rodent receptor (rodent receptor): does not activate rodent receptor | half-life ([8]; aorta, read-out: t½ in aorta (converted)): 8 h | half-life ([8]; serum, read-out: t½ in serum (converted)): 11 h | caveolin-1 gene expression (caveolin-1 [9]): decreases caveolin-1 gene expression; also recorded: reduces caveolin-1 expression

relaxin
safety and tolerability [10]: safe and well-tolerated | arterial compliance (hypertensive rats): improved arterial compliance
